Measured values: US9962395B2, “Compositions and methods for maintaining cognitive function” (The Regents of the University of California, priority 2014, dated 2018)
“Also recorded” adds a separate entry of the source.

Assays:
Assay type in all cases: in vivo
[1] = system: ovariectomized female C57BL/6 mice; assay: Morris water maze (spatial memory) in ovariectomized mice
Procedure: (§1) FIG. 5. Peripheral estrogens improve performance on the Morris water maze via ERP expressed on neurons. Healthy female C57BL/6 were tested for cognitive performance (spatial memory) using the Morris water maze, whereby mice learn to spend more time in a target quadrant (TQ) as compared to three other quadrants (OQ). […] (Bottom graph) To determine (a) whether ER beta is required for proper learning and, more specifically, (b) whether ER beta expression in neurons is required for learning, mice were generated that had ER beta conditionally knocked out using CreLox technology, with Cre driving the knock out in neurons via the neuron-specific enolase (NSE) promoter. […] (***p≤0.001, ANOVA-Sidak's posttest). […] The dashed line on the graphs indicates the time expected to be spent in a quadrant by random chance in the absence of learning (25%).
Ovariectomized mice (OVX-Placebo) display worse performance in the Morris water maze than control mice (Sham-Placebo) (FIG. 5, top panel). The administration of an estriol improves performance in ovariectomized mice (OVX-Estriol) (FIG. 5, top panel).

[2] = system: post-menopausal female patients; assay: Randomized, double-blind, placebo-controlled human clinical trial of estriol and norethindrone in menopause; conditions: oral estriol 2, 4, 6 or 8 mg/day, 36-month treatment, women
Procedure: This example describes a randomized, double-blind, placebo-controlled human clinical trial for the treatment of menopause estriol and norethindrone.
Women who are taking hormone replacement therapy are excluded from the trial.
Patients are randomized to oral estriol (2 mg/day, 4 mg/day, 6 mg/day, or 8 mg/day) or to placebo for a 36-month treatment duration. Gynecologists examine the patients before, during, and after the study. Each patient is examined at three- to six-month intervals during the trial. Patients also undergo mammograms before and after the study. In addition, at baseline, 3 months, 6 months, 12 months, 18 months, 24, months, 30 months, and 36 months, the investigators measure participants' estriol levels, and assess cognitive abilities.
A total of 100 patients receive estriol, and 100 patients receive placebo. Baseline characteristics are similar in both patient groups. Participants' mean age at entry is approximately 52 years. […] To ensure breast and uterus safety, every three months the patients take norethindrone 0.7 mg once a day for 14 days.

[3] = system: hippocampal CA1 of ovariectomized (OVX) mice; assay: Hippocampal slice electrophysiology: long term potentiation (LTP) in CA1 after high-frequency stimulation
Procedure: FIGS. 1A and 1B. Estriol partially recovers long term potentiation (LTP) in the hippocampal CA1 of ovariectomized (OVX) mice. (A) LTP induced by 2×100 Hz HFS in sham-placebo treated mice (open squares, n=4) is reduced in OVX-placebo treated mice (gray circles, n=4). Estriol-treated OVX mice show improved synaptic strength (black circles, n=4). Representative traces are superimposed average fEPSPs recorded at baseline and during final 15 minutes after HFS. Estriol (5 mg) or placebo was administered as subcutaneous pellets. Calibration: 2 mV, 5 ms. (B) Summary showing fEPSP slopes during baseline (Pre) and in final 15 minutes after HFS (Post). […] Statistics RM-ANOVA, Tukey's multiple comparison test, ****p≤0.0001.
Electrophysiology to assess excitatory synaptic transmission is an accepted biomarker for cognitive function in mice, which specifically tests long term potentiation (LTP) during stimulation of the region of the brain responsible for memory, the CA1 region of the hippocampus. Hippocampal electrophysiology was examined in slices from sham surgical mice treated with placebo (SP), ovariectomized mice treated with placebo (OP), and ovariectomized mice treated with estriol (OE). […] LTP was reduced in OP mice as compared to SP mice, consistent with the known deleterious effects upon loss of peripheral estrogen on neurotransmission (FIG. 1).

PSD-95 = PSD-95 synaptic protein expression in dorsal hippocampus (western blot, immunofluorescence); conditions: OVX mice treated with estriol, n=2
Source text: FIG. 4 consists of two panels, labeled panels (A) and (B). Estriol partially recovers synaptic levels of PSD-95 in the dorsal hippocampus following OVX. Panel A: levels of PSD-95 are decreased in the dorsal hippocampus in OVX-Placebo mice (n=2) compared to Sham-Placebo mice (n=2). […] Scale bar=20 μm, 40× objective.
Expression of PSD-95 in the CA1 stratum radiatum was shown by both immunofluorescence and by western blot (FIG. 4)

NSE-Cre:ERβ^fl/fl mice = assay: Morris water maze in mice with neuronal conditional knockout of ER beta; conditions: OVX estriol-treated NSE-Cre:ERβ^fl/fl mice, n=7
Procedure: as §1
Thus, estrogen receptor β ligands can likely protect against neuronal defects and disability during neurodegenerative processes. This is consistent with the observation that estriol improved performance since it is a known that estriol is an agonist for various estrogen receptors including estrogen receptor β.

`C[C@]12CC[C@@H]3c4ccc(O)cc4CC[C@H]3[C@@H]1C[C@@H](O)[C@@H]2O` [estriol] was tested, and the “% duration in target quadrant (TQ) versus other quadrants (OQ), learning” value ([1]; OVX mice, 20 days of 5 mg, 90 day release estriol implants, n=7, p≤0.01) was “significant preference for the TQ over OQ; also recorded: ability to learn may be restored”, the “average latency to platform during acquisition training” value ([1]; Sham-Placebo vs OVX-Placebo vs OVX-Estriol, 3 trials/mouse/day, RM-ANOVA p>0.05) was “no difference was observed” and the “Estriol levels in serum” value [2] was “in early pregnancy range”. The “LTP versus OVX-placebo mice (in words)” value ([3]; OVX mice treated with estriol for 9 weeks, RM-ANOVA, Tukey, p≤0.0001) was “significantly improved over OP mice; also recorded: significant improvement in LTP deficit from ovariectomy”, the “fEPSP slope in final 15 minutes after HFS (Post), Mean±SE post-HFS” value ([3]; OVX mice, estriol 5 mg subcutaneous pellet, 2×100 Hz HFS, n=4, sham-placebo 159.6±0.2, OVX-placebo 141.6±0.5) was 150.4±0.4 and the “PSD-95 levels in dorsal hippocampus / CA1 stratum radiatum versus OVX-placebo” value (PSD-95) was “increased expression of PSD-95; also recorded: elevated PSD-95 levels”. For the same compound, the “% duration in TQ versus OQ, estriol rescue of learning in ER beta neuronal knockout” value (NSE-Cre:ERβ^fl/fl mice) was “estrogen-mediated improvement is lost; also recorded: the ability of estriol to rescue learning is mediated by ER beta expression in neurons”.
